Molecular target: T1, GlyT1 (Homo sapiens, UniProt P48067)
T1 construct: expressed in transfected cells
T1 sequence (P48067 1-706): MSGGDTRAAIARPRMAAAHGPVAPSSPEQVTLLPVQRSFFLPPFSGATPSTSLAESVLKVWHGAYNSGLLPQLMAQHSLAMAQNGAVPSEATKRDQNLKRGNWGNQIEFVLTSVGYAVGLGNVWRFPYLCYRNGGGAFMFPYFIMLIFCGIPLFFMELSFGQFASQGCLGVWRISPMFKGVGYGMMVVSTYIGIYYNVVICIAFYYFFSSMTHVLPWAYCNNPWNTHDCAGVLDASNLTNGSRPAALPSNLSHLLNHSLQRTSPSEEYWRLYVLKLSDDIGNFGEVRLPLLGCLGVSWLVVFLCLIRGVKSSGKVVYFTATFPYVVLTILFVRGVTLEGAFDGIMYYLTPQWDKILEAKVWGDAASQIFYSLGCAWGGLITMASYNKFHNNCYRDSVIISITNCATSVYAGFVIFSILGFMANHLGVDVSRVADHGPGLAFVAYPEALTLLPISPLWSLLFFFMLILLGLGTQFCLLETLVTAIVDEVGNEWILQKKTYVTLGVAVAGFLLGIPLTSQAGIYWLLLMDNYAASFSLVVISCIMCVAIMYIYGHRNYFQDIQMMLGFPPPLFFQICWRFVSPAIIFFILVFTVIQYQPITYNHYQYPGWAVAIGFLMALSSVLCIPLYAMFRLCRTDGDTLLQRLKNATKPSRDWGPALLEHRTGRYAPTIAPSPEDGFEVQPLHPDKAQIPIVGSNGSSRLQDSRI
Assay: Glycine Transporter 1 (GlyT1) uptake assay, scintillation proximity assay of [14C]-glycine uptake
Assay type: cell-based
Settings: SPA, four parameter logistic fit, read-out: GlyT1 (pIC50) (converted)
How it was run: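 IC50 values derive from four-parameter logistic curves fitted to dose-response data. Uptake of [14C]-glycine measured in scintillation proximity format.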

IC50 [nM]	Structure (SMILES)
100 to 1000	CC(C)(F)Cn1cc2c(n1)CN(C(=O)c1cc(S(C)(=O)=O)ccc1-c1cccc(F)c1)C2 [Example 434, 2-(2-Fluoro-2-methylpropyl)-5-[2-(3-fluorophenyl)-5-methanesulfonylbenzoyl]-2H 4H 5H 6H-pyrrolo[3,4-c]pyrazole]
100 to 1000	CC1(COc2ccc(S(C)(=O)=O)cc2C(=O)N2Cc3cn(-c4ccccc4F)nc3C2)COC1 [Example 436, 2-(2-Fluorophenyl)-5-{5-methanesulfonyl-2-[(3-methyloxetan-3-yl)methoxy]benzoyl}-2H 4H 5H 6H-pyrrolo[3,4-c]pyrazole]
< 100	Cc1cccc(-n2cc3c(n2)CN(C(=O)c2cc(S(C)(=O)=O)ccc2OCC2(C)COC2)C3)c1 [Example 437, 5-{5-Methanesulfonyl-2-[(3-methyloxetan-3-yl)methoxy]benzoyl}-2-(3-methylphenyl)-2H 4H 5H 6H-pyrrolo[3,4-c]pyrazole]
< 100	CC1(COc2ccc(S(C)(=O)=O)cc2C(=O)N2Cc3cn(-c4ccc(F)cc4)nc3C2)COC1 [Example 440, 2-(4-Fluorophenyl)-5-{5-methanesulfonyl-2-[(3-methyloxetan-3-yl)methoxy]benzoyl}-2H 4H 5H 6H-pyrrolo[3,4-c]pyrazole]
100 to 1000	Cc1cccc(-n2cc3c(n2)CN(C(=O)c2cc(S(C)(=O)=O)ccc2OCC2(C)COC2)C3)c1F [Example 441, 2-(2-Fluoro-3-methylphenyl)-5-{5-methanesulfonyl-2-[(3-methyloxetan-3-yl)methoxy]benzoyl}-2H 4H 5H 6H-pyrrolo[3,4-c]pyrazole]
100 to 1000	CS(=O)(=O)c1ccc(-c2cccc(F)c2)c(C(=O)N2Cc3cnn(CC(F)(F)F)c3C2)c1 [Example 445, 5-[2-(3-Fluorophenyl)-5-methanesulfonylbenzoyl]-1-(2 2 2-trifluoroethyl)-1H 4H 5H 6H-pyrrolo[3,4-c]pyrazole]
< 100	C[C@H](Oc1ccc(S(C)(=O)=O)cc1C(=O)N1Cc2cnn(-c3cccc4nccn34)c2C1)C(F)(F)F [Example 446, 1-{Imidazo[1 2-a]pyridin-5-yl}-5-(5-methanesulfonyl-2-{[(2S)-1 1 1-trifluoropropan-2-yl]oxy}benzoyl)-1H 4H 5H 6H-pyrrolo[3,4-c]pyrazole]
< 100	CS(=O)(=O)c1ccc(-c2cccc(F)c2)c(C(=O)N2Cc3cn(C4CCOCC4)nc3C2)c1 [Example 448, 5-[2-(3-Fluorophenyl)-5-methanesulfonylbenzoyl]-2-(oxan-4-yl)-2H 4H 5H 6H-pyrrolo[3,4-c]pyrazole]
< 100	CS(=O)(=O)c1ccc(-c2cccc(F)c2)c(C(=O)N2Cc3cn(CC4CC4)nc3C2)c1 [Example 449, 2-(Cyclopropylmethyl)-5-[2-(3-fluorophenyl)-5-methanesulfonylbenzoyl]-2H 4H 5H 6H-pyrrolo[3,4-c]pyrazole]
1000 to 10000	CS(=O)(=O)c1ccc(-c2cccc(F)c2)c(C(=O)N2Cc3cnn(CC4CC4)c3C2)c1 [Example 452, 1-(Cyclopropylmethyl)-5-[2-(3-fluorophenyl)-5-methanesulfonylbenzoyl]-1H 4H 5H 6H-pyrrolo[3,4-c]pyrazole]
< 100	CS(=O)(=O)c1ccc(-c2cccc(F)c2)c(C(=O)N2Cc3cn(CC4CC4(F)F)nc3C2)c1 (centres unmarked) [Example 453, 2-[(2 2-Difluorocyclopropyl)methyl]-5-[2-(3-fluorophenyl)-5-methanesulfonylbenzoyl]-2H 4H 5H 6H-pyrrolo[3,4-c]pyrazole]
1000 to 10000	CS(=O)(=O)c1ccc(-c2cccc(F)c2)c(C(=O)N2Cc3cnn(CC4CC4(F)F)c3C2)c1 (centres unmarked) [Example 454, 1-[(2 2-Difluorocyclopropyl)methyl]-5-[2-(3-fluorophenyl)-5-methanesulfonylbenzoyl]-1H 4H 5H 6H-pyrrolo[3,4-c]pyrazole]

Continued, compound first:

Structure (SMILES)	IC50 [nM]
CC1(COc2ccc(S(C)(=O)=O)cc2C(=O)N2Cc3cn(-c4ccccc4)nc3C2)COC1 [Example 435, 5-{5-Methanesulfonyl-2-[(3-methyloxetan-3-yl)methoxy]benzoyl}-2-phenyl-2H 4H 5H 6H-pyrrolo[3,4-c]pyrazole]	< 100
CC1(COc2ccc(S(C)(=O)=O)cc2C(=O)N2Cc3cn(-c4cccc(C(F)(F)F)c4F)nc3C2)COC1 [Example 438, 2-[2-Fluoro-3-(trifluoromethyl)phenyl]-5-{5-methanesulfonyl-2-[(3-methyloxetan-3-yl)methoxy]benzoyl}-2H 4H 5H 6H-pyrrolo[3,4-c]pyrazole]	100 to 1000
CC1(COc2ccc(S(C)(=O)=O)cc2C(=O)N2Cc3cn(-c4cc(Cl)ccc4F)nc3C2)COC1 [Example 439, 2-(5-Chloro-2-fluorophenyl)-5-{5-methanesulfonyl-2-[(3-methyloxetan-3-yl)methoxy]benzoyl}-2H 4H 5H 6H-pyrrolo[3,4-c]pyrazole]	100 to 1000
Cc1ccc(F)c(-n2cc3c(n2)CN(C(=O)c2cc(S(C)(=O)=O)ccc2OCC2(C)COC2)C3)c1 [Example 442, 2-(2-Fluoro-5-methylphenyl)-5-{5-methanesulfonyl-2-[(3-methyloxetan-3-yl)methoxy]benzoyl}-2H 4H 5H 6H-pyrrolo[3,4-c]pyrazole]	100 to 1000
C[C@H](Oc1ccc(C#N)cc1C(=O)N1Cc2cn(-c3ccncc3)nc2C1)C(F)(F)F [Example 443, 3-[2-(Pyridin-4-yl)-2H 4H 5H 6H-pyrrolo[3,4-c]pyrazole-5-carbonyl]-4-{[(2S)-1 1 1-trifluoropropan-2-yl]oxy}benzonitrile]	< 100
CC(C)Oc1ccc(C#N)cc1C(=O)N1Cc2cnn(CC(F)(F)F)c2C1 [Example 444, 4-(Propan-2-yloxy)-3-[1-(2 2 2-trifluoroethyl)-1H 4H 5H 6H-pyrrolo[3,4-c]pyrazole-5-carbonyl]benzonitrile]	100 to 1000
CC(C)Oc1ccc(C#N)cc1C(=O)N1Cc2cn(-c3ccncc3)nc2C1 [Example 447, 4-(Propan-2-yloxy)-3-[2-(pyridin-4-yl)-2H 4H 5H 6H-pyrrolo[3,4-c]pyrazole-5-carbonyl]benzonitrile]	< 100
CC(C)Oc1ccc(C#N)cc1C(=O)N1Cc2cn(CC3CC3)nc2C1 [Example 450, 3-[2-(Cyclopropylmethyl)-2H 4H 5H 6H-pyrrolo[3,4-c]pyrazole-5-carbonyl]-4-(propan-2-yloxy)benzonitrile]	100 to 1000
C[C@H](Oc1ccc(C#N)cc1C(=O)N1Cc2cn(CC3CC3)nc2C1)C(F)(F)F [Example 451, 3-[2-(Cyclopropylmethyl)-2H 4H 5H 6H-pyrrolo[3,4-c]pyrazole-5-carbonyl]-4-{[(2S)-1 1 1-trifluoropropan-2-yl]oxy}benzonitrile]	100 to 1000
C[C@H](Oc1ccc(S(C)(=O)=O)cc1C(=O)N1Cc2cn(CC3CC3(F)F)nc2C1)C(F)(F)F (stereo partly drawn) [Example 455, 2-[(2 2-Difluorocyclopropyl)methyl]-5-(5-methanesulfonyl-2-{[(2S)-1 1 1-trifluoropropan-2-yl]oxy}benzoyl)-2H 4H 5H 6H-pyrrolo[3,4-c]pyrazole]	< 100
CC(C)Oc1ccc(C#N)cc1C(=O)N1Cc2cn(CC3CC3(F)F)nc2C1 (centres unmarked) [Example 456, 3-{2-[(2 2-Difluorocyclopropyl)methyl]-2H 4H 5H 6H-pyrrolo[3,4-c]pyrazole-5-carbonyl}-4-(propan-2-yloxy)benzonitrile]	100 to 1000

Source: patent publication US9708334B2, “Substituted 2,4,5,6-tetrahydropyrrolo[3,4-c]pyrazole and 4,5,6,7-tetrahydro-2H-pyrazolo[4,3-c]pyridine compounds as GlyT1 inhibitors” (DART NEUROSCIENCE (CAYMAN) LTD., priority 2014, dated 2017)
